Source: patent US4374136A, “Pyrimidine derivatives” (May & Baker Limited, priority 1980, dated 1983)
Where two headings read alike, the source gives them in different places.

Legend:
[1] = test system: Plasmodium berghei (strain N30); assay: Antimalarial activity in mice, Plasmodium berghei strain N30, oral daily for 4 days; type: in vivo; conditions: for Number of mice cured: 24 mice tested; for ED50: Plasmodium berghei, 504 h, read-out: CD50 (dose required to cure 50% of mice tested)
Description: (§1) (a) The test compounds were tested in mice, against Plasmodium yoelii nigeriensis (strain N67), which is sensitive to pyrimethamine, and against a strain of Plasmodium yoelii nigeriensis [strain PR (derived from strain N67)] which is resistant to pyrimethamine, and also against pyrimethamine sensitive Plasmodium berghei (strain N30).
(§2) In the experiments, the mice were each infected intraperitoneally with about 10^6 trophozoites. The test compound was administered orally daily for 4 days, beginning on the day of infection, and peripheral blood smears of the mice were observed 2 or 3 times per week for a total of 21 days. The numbers of mice cured were counted and the dose required to cure 50% of mice tested (CD50) was calculated.

[2] = test system: Plasmodium yoelii nigeriensis (strain N67); assay: Single oral dose antimalarial test in mice infected with strain N67; type: in vivo, Plasmodium yoelii nigeriensis; mice; conditions: for ED50: Plasmodium yoelii
Description: (b) Mice were each infected intraperitoneally with about 10^6 trophozoites of strain N67 of Plasmodium yoelii nigeriensis. […] The numbers of mice cured were counted and the dose required to cure 50% of mice tested (CD50) was calculated.
The results obtained are shown below in Table II, in comparison with a test using pyrimethamine against the same organism.

[3] = test system: dogs; assay: Toxicity in dogs, oral; type: in vivo
[4] = test system: mice; assay: Acute oral toxicity in mice; type: in vivo; conditions: 5 mice tested
Description: (§3) Mice were treated with a single dose of the compound of formula III by the oral route, and were observed until all survivors had appeared to be healthy for 3 consecutive days. The LD50 dose (dose required to kill 50% of the mice tested) was then calculated.
(§4) In a similar test on reference compound RCA an oral dose of 1000 mg/kg killed 2 out of 5 mice, giving an LD50 figure of […].

[5] = Acute oral toxicity in mice; type: in vivo; conditions: mouse, in vivo; single oral dose, mice; read-out: LD50 (dose required to kill 50% of the mice tested)
Description: as §3, §4

[6] = test system: Plasmodium yoelii nigeriensis (strain N67); assay: Antimalarial activity in mice, Plasmodium yoelii nigeriensis strain N67, oral daily for 4 days; type: in vivo; conditions: for ED50: Plasmodium yoelii, 504 h, read-out: CD50 (dose required to cure 50% of mice tested)
Description: as §1, §2

[7] = test system: Plasmodium yoelii nigeriensis (strain PR); assay: Antimalarial activity in mice, pyrimethamine-resistant Plasmodium yoelii nigeriensis strain PR, oral daily for 4 days; type: in vivo; conditions: for Number of mice cured: PR; for ED50: Plasmodium yoelii, 504 h, strain PR, oral daily for 4 days from day of infection, 21 days observation, read-out: CD50 (dose required to cure 50% of mice tested)
Description: as §1, §2

[8] = test system: malaria; assay: Comparative activity against malaria (general statement); type: in vivo
Description: The properties of the compound of formula III are illustrated by the following laboratory tests.

[9] = 504 h, one single oral dose 48 hours after infection, strain N67, read-out: CD50 (dose required to cure 50% of mice tested)

## Cc1nc(N)nc(N)c1OCCCOc1ccc(-c2ccc(Cl)cc2)cc1 [compound of formula III, 2,4-diamino-5-[3-{4-(4-chlorophenyl)phenoxy}propoxy]-6-methylpyrimidine]
[1]; N30, daily dose 0.125 mg/kg
  Number of mice cured: 0 mice
[1]; N30, daily dose 0.5 mg/kg
  Number of mice cured: 14 mice
[1]; N30, daily dose 2.0 mg/kg
  Number of mice cured: 24 mice
[1]; strain N30, oral daily for 4 days from day of infection, 21 days observation
  ED50: 0.45 mg/kg
[2]; [9]
  ED50: 3.5 mg/kg
[2]; single dose 0.2 mg/kg, 48 hours after infection, 8 mice tested
  Number of mice cured: 0 mice
[2]; single dose 2.0 mg/kg, 48 hours after infection, 8 mice tested
  Number of mice cured: 1 mice
[2]; single dose 20.0 mg/kg, 48 hours after infection, 8 mice tested
  Number of mice cured: 8 mice
[3]; 15 mg/kg/day (highest dosage), 6 dogs
  Number of dogs in which clinically well-tolerated: 5 dogs
[3]; oral gelatin capsules, one month, 1, 3 and 9 mg/kg/day
  Clinical tolerance in dogs: clinically well-tolerated
[3]; versus reference compound RCA
  Toxicity in dogs in comparison: much less toxic in dogs than reference compound RCA
[4]; 500 mg/kg oral
  Number of mice killed: 0 mice
[4]; 1000 mg/kg oral
  Number of mice killed: 3 mice
[5]
  LD50: ~1000 mg/kg
[6]; N67, daily dose 0.125 mg/kg, 32 mice tested
  Number of mice cured: 2 mice
[6]; N67, daily dose 0.5 mg/kg, 32 mice tested
  Number of mice cured: 28 mice
[6]; N67, daily dose 2.0 mg/kg, 31 mice tested
  Number of mice cured: 31 mice
[6]; strain N67, oral daily for 4 days from day of infection, 21 days observation
  ED50: 0.3 mg/kg
[7]; daily dose 0.2 mg/kg, 16 mice tested
  Number of mice cured: 0 mice
[7]; daily dose 2.0 mg/kg, 16 mice tested
  Number of mice cured: 3 mice
[7]; daily dose 20.0 mg/kg, 15 mice tested
  Number of mice cured: 15 mice
[7]
  ED50: 3 mg/kg
[8]; sensitive and resistant strains of malaria, versus reference compound RCA
  Antimalarial activity in comparison: very much more active than reference compound RCA

## CCc1nc(N)nc(N)c1-c1ccc(Cl)cc1 [pyrimethamine, 2,4-diamino-5-(4-chlorophenyl)-6-ethylpyrimidine]
[2]; [9]
  ED50: > 50 mg/kg
[2]; dose 5.0 mg/kg, 8 mice tested
  Number of mice cured: 0 mice
[2]; dose 50.0 mg/kg (maximum tolerated dose), 8 mice tested
  Number of mice cured: 0 mice

## Cc1nc(N)nc(N)c1OCCCOc1ccc(Cl)cc1C1CCCCC1 [reference compound RCA, 2,4-diamino-6-methyl-5-[3-(4-chloro-2-cyclohexylphenoxy)propoxy]pyrimidine, reference compound]
[1]; N30, daily dose 1 mg/kg
  Number of mice cured: 0 mice
[1]; N30, daily dose 10 mg/kg
  Number of mice cured: 5 mice
[1]; N30, daily dose 100 mg/kg
  Number of mice cured: 24 mice
[1]; po
  ED50: 15 mg/kg
[2]; po, 24 h, read-out: CD50
  ED50: > 200 mg/kg
[2]; oral dose 200 mg/kg, 24 hours after infection, 8 mice
  Number of mice cured: 2 mice
[3]; doses higher than 3 mg/kg/day
  Deaths in dogs: deaths occurring at higher doses
[3]; even at doses of 3 mg/kg/day
  Clinical tolerance in dogs: clinically badly tolerated
[4]; 1000 mg/kg oral
  Number of mice killed: 2 mice
[5]
  LD50: ~1000 mg/kg
[6]; N67, daily dose 1 mg/kg, 32 mice tested
  Number of mice cured: 2 mice
[6]; N67, daily dose 5 mg/kg, 32 mice tested
  Number of mice cured: 17 mice
[6]; N67, daily dose 25 mg/kg, 31 mice tested
  Number of mice cured: 31 mice
[6]; po
  ED50: 5 mg/kg
[7]; daily dose 10 mg/kg, 32 mice tested
  Number of mice cured: 0 mice
[7]; daily dose 100 mg/kg, 32 mice tested
  Number of mice cured: 32 mice
[7]
  ED50: 30 mg/kg
[8]; fold as active
  Activity against malaria relative to any of the other 34 compounds of B.P. 1546937 tested: at least 4 times
